Reference: patent US12371454B2, “Cyclic peptide compound having Kras inhibitory action” (priority 2019, dated 2025)
Starred links: 1 amine or outer side, 2 acyl side, 3 side chain; linkers in the order of their positions; H or OH if unused. Positions of bridges follow the written chain, without caps; N, C: chain ends. Non-standard residues stand in square brackets, D forms with d. Residues, ends and D or L forms follow the SMILES beside them. *: point of attachment. hPhe(3,5-F2-4-CF3) = N[C@@H](CCc1cc(F)c(C(F)(F)F)c(F)c1)C(=O)O; hPhe(3-Cl-4-CF3) = N[C@@H](CCc1ccc(C(F)(F)F)c(Cl)c1)C(=O)O; hPhe(3-F,4-CF3) = N[C@@H](CCc1ccc(C(F)(F)F)c(F)c1)C(=O)O; NMePhe(4-CF3) = CN[C@@H](Cc1ccc(C(F)(F)F)cc1)C(=O)O; X44 = O=C([C@H](CCc1ccc2ncccc2c1)N[*:1])[*:2]; 3Oxa8azabicyclo(3.2.1)octane = C1CC2COCC1N2*; X86 = O=C([C@H](CCc1ccc2occc2c1)N[*:1])[*:2]; NMePhe(4-Me) = CN[C@@H](Cc1ccc(C)cc1)C(=O)O; NMedβ3hAla = C[C@H](CC(=O)[*:2])N(C)[*:1]; NMeGly(cPent) = CN[C@H](C(=O)O)C1CCCC1; NMeCha = CN[C@@H](CC1CCCCC1)C(=O)O; cisHyp = O=C(O)[C@@H]1C[C@H](O)CN1; NMehLeu = CN[C@@H](CCC(C)C)C(=O)O; Hyp = O=C(O)[C@@H]1C[C@@H](O)CN1; NMeChg = CN[C@H](C(=O)O)C1CCCCC1; NMeD = CN[C@@H](CC(=O)O)C(=O)O; NMeL = CN[C@@H](CC(C)C)C(=O)O; d(β3hA) = C[C@@H](N)CC(=O)O; NMeS = CN[C@@H](CO)C(=O)O; NMeA = CN[C@@H](C)C(=O)O; Piperidide = C1CCN(*)CC1; X45 = FC(F)Oc1ccc(C*)cc1; Ac5c = NC1(C(=O)O)CCCC1; Aze = O=C(O)[C@@H]1CCN1; Sar = CNCC(=O)O; Propyl = CCC*

test system: Human pancreatic cancer cell line AsPC-1; assay: Measurement of AsPC-1 cell growth inhibition (AsPC-1 CGI); format: cell-based; conditions: 96 h
Method in brief: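 AsPC-1 cells in 15% FBS RPMI-1640 were exposed to test compound for 96 hours at 37° C, with CellTiter-Glo as endpoint.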

Structure (SMILES) | IC50
CC[C@H](C)[C@@H]1NC(=O)[C@H](CC(C)C)N(C)C(=O)C[C@@H](C(=O)N2CCCCC2)N(C)C(=O)[C@H](CC(C)C)N(C)C(=O)C2(CCCC2)NC(=O)[C@@H]2C[C@H](OCc3ccc(OC(F)F)cc3)CN2C(=O)[C@H](CCc2ccc(C(F)(F)F)c(F)c2)NC(=O)CN(C)C(=O)[C@H](CC2CCCCC2)N(C)C(=O)CN(C)C(=O)CN(C)C1=O [Compound 2135] ([NMeL]I[Sar][Sar][NMeCha][Sar][hPhe(3-F,4-CF3)][cisHyp](X45)[Ac5c][NMeL][NMeD]-Piperidide; lactam N-11) | > 500 nM
CC[C@H](C)[C@@H]1NC(=O)[C@H](CC(C)C)N(C)C(=O)C[C@@H](C(=O)N2CCCCC2)N(C)C(=O)[C@H](CC(C)C)N(C)C(=O)C2(CCCC2)NC(=O)[C@@H]2C[C@H](O)CN2C(=O)[C@H](CCc2ccc(C(F)(F)F)c(F)c2)NC(=O)CN(C)C(=O)[C@H](CC2CCCCC2)N(C)C(=O)CN(C)C(=O)CN(C)C1=O [Compound 544, (3S,9S,18S,21S,25S,28S,34S,36S)-9-(cyclohexylmethyl)-3-[2-[3-fluoro-4-(trifluoromethyl)phenyl]ethyl]-36-hydroxy-21,28-diisobutyl-7,10,13,16,22,26,29-heptamethyl-18-[(1S)-1-methylpropyl]-25-(piperidine-1-carbonyl)spiro[1,4,7,10,13,16,19,22,26,29,32-undecazabicyclo[32.3.0]heptatriacontane-31,1′-cyclopentane]-2,5,8,11,14,17,20,23,27,30,33-undecone] ([NMeL]I[Sar][Sar][NMeCha][Sar][hPhe(3-F,4-CF3)][cisHyp][Ac5c][NMeL][NMeD]-Piperidide; lactam N-11) | 100 to 500 nM
CCCOC[C@H]1C(=O)N(C)CC(=O)N[C@@H](CCc2ccc(C(F)(F)F)c(Cl)c2)C(=O)N2CCC[C@H]2C(=O)NC2(CCCC2)C(=O)N(C)[C@@H](C2CCCC2)C(=O)N(C)[C@H](C(=O)N2C3CCC2COC3)CC(=O)N(C)[C@@H](CCC(C)C)C(=O)N[C@@H]([C@@H](C)CC)C(=O)N[C@@H](C)C(=O)N2CC[C@H]2C(=O)N1C [Compound 1326] ([NMehLeu]IA[Aze][NMeS](Propyl)[Sar][hPhe(3-Cl-4-CF3)]P[Ac5c][NMeGly(cPent)][NMeD]-{3Oxa8azabicyclo(3.2.1)octane}; lactam N-11) | 20 to 50 nM
CC[C@H](C)[C@@H]1NC(=O)[C@H](CC(C)C)N(C)C(=O)C[C@@H](C(=O)N2CCCCC2)N(C)C(=O)[C@H](C2CCCC2)N(C)C(=O)C2(CCCC2)NC(=O)[C@@H]2CCCN2C(=O)[C@H](CCc2ccc3occc3c2)NC(=O)CN(C)C(=O)[C@H](CC2CCCCC2)N(C)C(=O)[C@@H]2CCN2C(=O)[C@H](C)N(C)C1=O [Compound 2063] ([NMeL]I[NMeA][Aze][NMeCha][Sar][X86]P[Ac5c][NMeGly(cPent)][NMeD]-Piperidide; lactam N-11) | 50 to 100 nM
CC[C@H](C)[C@@H]1NC(=O)[C@H](CC(C)C)N(C)C(=O)C[C@@H](C)NC(=O)[C@H](C2CCCC2)N(C)C(=O)C2(CCCC2)NC(=O)[C@@H]2CCCN2C(=O)[C@H](CCc2ccc(C(F)(F)F)c(Cl)c2)NC(=O)CN(C)C(=O)[C@H](CC2CCCCC2)N(C)C(=O)[C@@H]2CCN2C(=O)[C@H](C)N(C)C1=O [Compound 1477] (cyclo([Ac5c][NMeGly(cPent)][d(β3hA)][NMeL]I[NMeA][Aze][NMeCha][Sar][hPhe(3-Cl-4-CF3)]P)) | 100 to 500 nM
CCO[C@@H]1C[C@H]2C(=O)NC3(CCCC3)C(=O)N(C)[C@@H](C3CCCCC3)C(=O)N(C)[C@H](C)CC(=O)N(C)[C@@H](CC(C)C)C(=O)N[C@@H]([C@@H](C)CC)C(=O)N(C)[C@@H](C)C(=O)N3CC[C@H]3C(=O)N(C)[C@@H](Cc3ccc(C(F)(F)F)cc3)C(=O)N(C)CC(=O)N[C@@H](CCc3cc(F)c(C(F)(F)F)c(F)c3)C(=O)N2C1 [Compound 486] (cyclo([Ac5c][NMeChg][NMedβ3hAla][NMeL]I[NMeA][Aze][NMePhe(4-CF3)][Sar][hPhe(3,5-F2-4-CF3)][Hyp](Et))) | 50 to 100 nM
CC[C@H](C)[C@@H]1NC(=O)[C@H](CC(C)C)N(C)C(=O)C[C@@H](C(=O)N(C)C)N(C)C(=O)[C@H](C2CCCCC2)N(C)C(=O)C2(CCCC2)NC(=O)[C@@H]2CCCN2C(=O)[C@H](CCc2ccc(C(F)(F)F)c(Cl)c2)NC(=O)CN(C)C(=O)[C@H](Cc2ccc(C)cc2)N(C)C(=O)[C@@H]2CCN2C(=O)[C@H](C)N(C)C1=O [Compound 1685] ([NMeL]I[NMeA][Aze][NMePhe(4-Me)][Sar][hPhe(3-Cl-4-CF3)]P[Ac5c][NMeChg][NMeD]-NMe2; lactam N-11) | 20 to 50 nM
CC[C@H](C)[C@@H]1NC(=O)[C@H](CC(C)C)N(C)C(=O)C[C@@H](C(=O)N2CCCCC2)N(C)C(=O)[C@H](C2CCCC2)N(C)C(=O)C2(CCCC2)NC(=O)[C@@H]2CCCN2C(=O)[C@H](CCc2ccc3ncccc3c2)NC(=O)CN(C)C(=O)[C@H](CC2CCCCC2)N(C)C(=O)[C@@H]2CCN2C(=O)[C@H](C)N(C)C1=O [Compound 2070] ([NMeL]I[NMeA][Aze][NMeCha][Sar][X44]P[Ac5c][NMeGly(cPent)][NMeD]-Piperidide; lactam N-11) | > 500 nM
